The values below come from patent US9758485B2, “Compounds for controlling arthropods” (priority 2013, dated 2017).

Data set [1] can be described thus: logP determination by HPLC on a reversed-phase column (C18), EEC Directive 79/831 Annex V.A8. Format: physicochemical.
Data set [2] relates to Phaedon cochleariae. As to the kind of experiment: Phaedon cochleariae - spray test. The data set is classed as in vivo. Particulars: Phaedon cochleariae, foliar, 168 h, larvae on Chinese cabbage leaf discs, after 7 days, read-out: efficacy; for pest or weed control at 100 g/ha: application rate 100 g/ha. As for the experimental part:
Phaedon cochleariae—Spray Test
(§1) Solvent: 78.0 parts by weight of acetone and 1.5 parts by weight of dimethylformamide
(§2) Emulsifier: alkylaryl polyglycol ether
(§3) To produce an appropriate active ingredient formulation, 1 part by weight of active ingredient is dissolved using the specified parts by weight of solvent and made up with water containing an emulsifier concentration of 1000 ppm until the desired concentration is attained. To produce further test concentrations, the preparation is diluted with emulsifier-containing water.
Discs of Chinese cabbage leaves (Brassica pekinensis) are sprayed with an active ingredient formulation of the desired concentration and, after drying, populated with larvae of the mustard beetle (Phaedon cochleariae).
After 7 days, efficacy in % is determined. 100% means that all the beetle larvae have been killed; 0% means that no beetle larvae have been killed.

Data set [3] concerns Ctenocephalides felis. As to the kind of experiment: Ctenocephalides felis - oral test. Particulars: Ctenocephalides felis, po, 48 h; application rate 100 ppm in citrated cattle blood; adult fleas; kill after 2 days; read-out: efficacy. The data set is classed as in vivo. Put shortly:
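Compound dissolved in DMSO (10 mg in 0.5 ml stock) and diluted with citrated cattle blood to test concentration. About 20 unfed adult fleas fed on the treated blood through a parafilm membrane. Kill (%) scored after 2 days; 100% = all fleas dead.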

Data set [4] relates to Lucilia cuprina. Put plainly: Lucilia cuprina test. Format: in vivo. Particulars: Lucilia cuprina, 48 h; application rate 100 ppm; L1 larvae in minced horsemeat; kill after 2 days; read-out: efficacy. Put shortly: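 About 20 L1 larvae placed on minced horsemeat treated with compound, formulated in DMSO and diluted with water to test concentration. Kill in % scored after 2 days (100% = all larvae dead, 0% = none).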

The test system of data set [5] is Tetranychus urticae. Put plainly: Tetranychus urticae - spray test, OP-resistant. Format: in vivo. The conditions noted are these: foliar, 144 h, bean leaf discs, after 6 days, read-out: efficacy; for pest or weed control at 100 g/ha: application rate 100 g/ha. As for the experimental part: Tetranychus urticae—Spray Test, OP-Resistant
as §1, §2, §3
Discs of bean leaves (Phaseolus vulgaris) infested by all stages of the greenhouse red spider mite (Tetranychus urticae) are sprayed with an active ingredient formulation of the desired concentration.
After 6 days, efficacy in % is determined. 100% means that all the spider mites have been killed; 0% means that none of the spider mites have been killed.

Data set [6] has as its system Spodoptera frugiperda. As to the kind of experiment: Spodoptera frugiperda - spray test. The data set is classed as in vivo. Particulars: foliar, 168 h, caterpillars on maize leaf discs, after 7 days, read-out: efficacy; for pest or weed control at 100 g/ha: application rate 100 g/ha. As for the experimental part: Spodoptera frugiperda—Spray Test
as §1, §2, §3
Leaf discs of maize (Zea mays) are sprayed with an active ingredient formulation of the desired concentration and, after drying, populated with caterpillars of the armyworm (Spodoptera frugiperda).
After 7 days, efficacy in % is determined. 100% means that all the caterpillars have been killed; 0% means that no caterpillars have been killed.

Data set [7] concerns Boophilus microplus. As to the kind of experiment: Boophilus microplus - injection test. Format: in vivo. The conditions noted are these: Rhipicephalus microplus, 168 h; application rate 20 μg/animal; injected into engorged adult female ticks; laying of fertile eggs, after 7 days; read-out: efficacy. The essentials:
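Steps: dilute compound in DMSO to the desired concentration; inject 1 μl abdominally into 5 engorged adult females; keep in climate-controlled dishes; at 7 days score fertile egg laying, incubating doubtful eggs until hatch at about 42 days.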

Data set [8] deals with Rhipicephalus sanguineus. As to the kind of experiment: Rhipicephalus sanguineus - in vitro contact tests with adult brown dog ticks. The data set is classed as in vivo. The conditions noted are these: application rate 5 μg/cm^2, after 48 h (dead or moribund). The essentials:
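Test compound was dissolved in acetone p.a. (9 mg in 1 ml, then diluted), and 250 μl were spread evenly over the inner surface of 25 ml test tubes on an orbital shaker at 30 rpm for 2 h. Once the solvent evaporated, 5-10 adult Rhipicephalus sanguineus ticks were sealed in, kept dark at room temperature, and after 48 h placed on a 45-50° C. hotplate to score dead or moribund ticks.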

Data set [9] has as its system Musca domestica. As to the kind of experiment: Musca domestica test. The data set is classed as in vivo. The conditions noted are these: application rate 100 ppm; adult houseflies; kill after 2 days. Put shortly: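 Compound dissolved in DMSO (10 mg per 0.5 ml) and diluted with water to the test concentration. Sponges soaked with sugar solution plus formulation were offered to 10 adult houseflies per vessel. Mortality (% kill, 100% = all dead, 0% = none) scored after 2 days.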

The mark [10] stands for this setting: reversed-phase HPLC column (C18), HPLC, reversed-phase C18, acetonitrile/water with formic acid, 55° C., read-out: logP.

Like-named read-outs stand apart in the source and are kept apart here.

For the compound `O=C(NC1CC1)c1cc(-c2cc(-c3c(Cl)cc(C(F)(C(F)(F)F)C(F)(F)F)cc3Cl)on2)ccc1Cl` [I-T23-1, 2-chloro-N-cyclopropyl-5-[5-[2,6-dichloro-4-[1,2,2,2-tetrafluoro-1-(trifluoromethyl)ethyl]phenyl]isoxazol-3-yl]benzamide], in [1] (setting [10]), the chromatographic logP came to 4.96. The pest or weed control at 500 g/ha in data set [2] (application rate 500 g/ha), in data set [5] (application rate 500 g/ha) and in [6] (application rate 500 g/ha) was 100% in each case. For the same compound, the pest or weed control at 100 ppm in [3] and in [4] was 100% in each case.
With `Cc1cc(C(F)(C(F)(F)F)C(F)(F)F)cc(C)c1-c1cnn(-c2cnc(Cl)c(C(=O)NC3CC3)c2)c1` [I-T4-3, 2-chloro-N-cyclopropyl-5-[4-[2,6-dimethyl-4-[1,2,2,2-tetrafluoro-1-(trifluoromethyl)ethyl]phenyl]pyrazol-1-yl]pyridine-3-carboxamide], the chromatographic logP in data set [1] (setting [10]) was 4.42. The pest or weed control at 100 g/ha in data set [2], in [5] and in [6] was 100% each time. The pest or weed control at 100 ppm in data set [3] and in [4] was 100% throughout.
In the case of `Cc1cc(C(F)(C(F)(F)F)C(F)(F)F)cc(C)c1-c1cnn(-c2ccc(Cl)c(C(=O)NC3CC3)c2)c1` [I-T4-1, N-cyclopropyl-2-chloro-5-[4-[2,6-dimethyl-4-[1,2,2,2-tetrafluoro-1-(trifluoromethyl)ethyl]phenyl]pyrazol-1-yl]benzamide], the chromatographic logP in data set [1] (setting [10]) amounted to 4.74. The pest or weed control at 100 g/ha in data set [2], in data set [5] and in data set [6] was 100% throughout. Besides, the pest or weed control at 100 ppm in data set [3] and in [4] was 100% each time.
With `Cc1cc(C(F)(C(F)(F)F)C(F)(F)F)cc(C(F)(F)F)c1-n1cc(-c2ccc(Cl)c(C(=S)NC3CC3)c2)cn1` [I-T3-161, 2-chloro-N-cyclopropyl-5-[1-[2-methyl-4-[1,2,2,2-tetrafluoro-1-(trifluoromethyl)ethyl]-6-(trifluoromethyl)phenyl]pyrazol-4-yl]benzenecarbothioamide], the chromatographic logP came to 5 in [1] (setting [10]); 5 in [1] (reversed-phase HPLC column (C18), HPLC-MS method a), reversed-phase column (C18); read-out: logP^a)); 5 in [1] (reversed-phase HPLC column (C18), HPLC-MS, reversed-phase column (C18), read-out: log P). Besides, the pest or weed control at 0.02 mg in data set [7] was 100%. Moreover, the pest or weed control at 100 g/ha in [2], in [5] and in data set [6] was 100% each time. For the same compound, the efficacy in data set [8] and in data set [9] was 100% throughout. The pest or weed control at 100 ppm in [3] and in [4] was 100% each time.
